Assay results from patent US8809627B2, “Plant isoflavone and isoflavanone O-methyltransferase genes” (The Samuel Roberts Noble Foundation, Inc., priority 2006, dated 2014).

Experiments:
MtIOMT4 = test: OMT assays with purified recombinant MtIOMT4 (relative activity; HPLC of products); type: biochemical, Medicago truncatula; conditions: for Relative activity, MtIOMT4: 50 μM S-adenosyl methionine, 100 μM acceptor substrate, most converted substrate = 100%
From the text: (§1) Cloning of MtIOMT5 (corresponding to TC 100926, TIGR MtGI v.8) was as described previously (Liu et al., 2005). To obtain a full-length cDNA for MtIOMT2, specific primers designed based upon the M. truncatula genomic sequence were used to amplify the MtIOMT2 coding sequence from M. truncatula root cDNA. The amplified product was cloned into the pGEM®-T easy vector (Promega, Madison Wis.) and sequenced to confirm its identity. MtIOMTs were cloned into the pET28a vector (EMD Biosciences, Inc., San Diego, Calif.) using PCR-based amplification with primers designed to introduce EcoRI and XhoI restriction sites; BamHI and XhoI sites were used for cloning MtIOMT6 due to the presence of an internal EcoRI site in this particular cDNA. Because the EST for MtIOMT8 was missing a start codon, the primer designed to clone MtIOMT8 into pET28a contained an additional 2-nucleotide insertion to generate an ATG start site. All MtIOMTs were expressed as translational fusions to an N-terminal His-tag. Expression of MtIOMTs in E. coli BL21(DE3) and purification by Ni^2+-NTA chromatography were as described (Zubieta et al., 2001). Proteins were dialyzed against 20 mM Tris pH 8.0, 100 mM NaCl, 10% (v/v) glycerol, and 14 mM β-mercaptoethanol. Protein concentration was determined by Bradford assay using BSA as a standard (Bradford, 1976).
Reactions (200 μl) were performed in 0.1 M potassium phosphate, pH 7.4, 10% (w/v) sucrose, 14 mM β-mercaptoethanol with 10 μM protein, 0.5 mM S-adenosyl-L-methionine, and 80 μM phenolic substrates. All substrates were purchased from Indofine (Hillsborough, N.J.) except 6,7-dihydroxy-4′-methoxyisoflavone, dihydrodaidzein, and vestitol, which were purchased from Apin (Oxfordshire, UK). […] OMT assays were incubated at 30° C. for 2 h and extracted with ethyl acetate. Ethyl acetate extracts were dried under N2 and the resultant material was resuspended in 50-100 μl of methanol. Samples were analyzed on an Agilent 1100 HPLC, equipped with a quaternary pump (model #G1311A), a degasser (model #G1322A), an autosampler (model #G1313A), and a diode array detector (model #G1315A). Samples of 20 μl were applied to an ODS2 reverse-phase column (5 μm particle size, 4.6×250 mm) and eluted in 1% (v/v) phosphoric acid with an increasing gradient of acetonitrile (0-5 min, 25%; 5-35 min, 25-50%; 35-39 min, 50-100%) at a flow rate of 1 ml/min. To resolve the 4′-O-methylated and 7-O-methylated products of genistein, samples were applied to a Phenomenex SYNERGI Polar-RP 80 Å column (4 μm particle size, 4.6×250 mm) and eluted in water with an increasing gradient of acetonitrile (0-5 min, 20%; 5-17 min, 20-38%; 17-33 min, 38%; 33-45 min, 38-56%; 45-46 min, 56-100%) at a flow rate of 1 ml/min. Chiral chromatography was performed as described (Liu et al., 2005).
For determination of specific activities, reactions (100 μl) were performed in 0.1 M potassium phosphate, pH 7.4, 10% (w/v) sucrose, 14 mM β-mercaptoethanol with 0.2-μg protein, 50 μM S-adenosyl-L-methionine (0.025 μCi ^14C-SAM per reaction), and 100 μM substrate. Reactions were incubated at 30° C. for 15-25 min and stopped by addition of 4 μl of 1N HCl. Products were extracted into 500 μl of ethyl acetate and 400 μl was used for liquid scintillation counting. […]

MtIOMT1 = test: OMT assays with purified recombinant MtIOMT1 (relative activity with 14C-SAM); type: biochemical, Medicago truncatula; conditions: for Relative activity, MtIOMT1: 50 μM S-adenosyl methionine, 100 μM acceptor substrate, most converted substrate = 100%
From the text: as §1, with “1976). […]” for “1976).”
For determination of specific activities, reactions (100 μl) were performed in 0.1 M potassium phosphate, pH 7.4, 10% (w/v) sucrose, 14 mM β-mercaptoethanol with 0.2-μg protein, 50 μM S-adenosyl-L-methionine (0.025 μCi ^14C-SAM per reaction), and 100 μM substrate. Reactions were incubated at 30° C. for 15-25 min and stopped by addition of 4 μl of 1N HCl. Products were extracted into 500 μl of ethyl acetate and 400 μl was used for liquid scintillation counting.

SMILES	Relative activity, MtIOMT4 (MtIOMT4) [%]	Relative activity, MtIOMT1 (MtIOMT1)	Fold by which relative initial activity with glycitein is higher than with this substrate (MtIOMT1; MtIOMT1, saturating concentration of glycitein) [fold]	Fold reduction of activity compared with 6,7,4′-trihydroxyisoflavone (MtIOMT1; MtIOMT1, methylation of the 4′-hydroxyl group)	Activity of MtIOMT4 (in words) (MtIOMT4)
O=c1cc(-c2ccc(O)cc2)oc2cc(O)cc(O)c12 [Apigenin]	0	0%	–	–	–
O=c1c(-c2ccc(O)cc2)coc2cc(O)ccc12 [Daidzein]	0	20.6%	5	–	–
O=C1C[C@@H](c2ccc(O)cc2)Oc2cc(O)cc(O)c21 [Naringenin]	0	0%	–	–	–
O=c1c(-c2ccc(O)cc2)coc2cc(O)cc(O)c12 [Genistein]	0	49.2%	–	–	–
O=c1c(-c2ccc(O)cc2)coc2cc(O)c(O)cc12 [6,7,4′-trihydroxyisoflavone]	0	43.9%	–	–	–
COc1ccc(-c2coc3cc(O)c(O)cc3c2=O)cc1 [6,7-dihydroxy,4′-methoxyisoflavone]	0	≦1%	–	more than 80 fold	–
O=c1c(-c2ccc(O)c(O)c2)coc2cc(O)ccc12 [7,3′,4′-trihydroxyisoflavone]	0	40.8%	–	–	–
O=c1oc2cc(O)ccc2c2oc3cc(O)ccc3c12 [Coumestrol]	100	0%	–	–	low level, trace activity
COc1cc2c(=O)c(-c3ccc(O)cc3)coc2cc1O [Glycitein]	0	100%	–	–	–
O=c1cc(-c2ccc(O)cc2)oc2cc(O)ccc12 [7,4′-dihydroxyflavone]	0	0%	–	–	–
O=c1c(O)c(-c2cc(O)c(O)c(O)c2)oc2cc(O)cc(O)c12 [Myricetin]	0	0%	–	–	–
COc1ccc(C2COc3cc(O)ccc3C2)c(O)c1 (stereo not drawn) [Vestitol]	43.8	0%	–	–	low level, trace activity
O=C1c2ccc(O)cc2OCC1c1ccc(O)cc1 (stereo not drawn) [Dihydrodaidzein]	0	15.6%	–	–	–
